Assay: xn = mol fraction of the nth substance listed

Oc1ccccc1Cl + CC(C)=O
101 kPa
Conditions	viscosity [mPa·s]
293.15 K, x1 = 0.09296	0.475
293.15 K, x1 = 0.1779	0.611
293.15 K, x1 = 0.3108	0.992
293.15 K, x1 = 0.4089	1.376
293.15 K, x1 = 0.5253	2.051
293.15 K, x1 = 0.6914	3.17
293.15 K, x1 = 0.8336	3.91
298.15 K, x1 = 0.101	0.442
298.15 K, x1 = 0.2004	0.644
298.15 K, x1 = 0.2997	0.857
298.15 K, x1 = 0.4006	1.217
298.15 K, x1 = 0.5	1.666
298.15 K, x1 = 0.5999	2.19
298.15 K, x1 = 0.6997	2.712
298.15 K, x1 = 0.7988	3.086
298.15 K, x1 = 0.9003	3.303
303.15 K, x1 = 0.09296	0.419
303.15 K, x1 = 0.1779	0.569
303.15 K, x1 = 0.3108	0.893
303.15 K, x1 = 0.4089	1.199
303.15 K, x1 = 0.5253	1.684
303.15 K, x1 = 0.6914	2.4
303.15 K, x1 = 0.8336	2.85
313.15 K, x1 = 0.09296	0.382
313.15 K, x1 = 0.1779	0.508
313.15 K, x1 = 0.3108	0.777
313.15 K, x1 = 0.4089	1.019
313.15 K, x1 = 0.5253	1.369
313.15 K, x1 = 0.6914	1.886
313.15 K, x1 = 0.8336	2.165
323.15 K, x1 = 0.09296	0.3515
323.15 K, x1 = 0.1779	0.465
323.15 K, x1 = 0.3108	0.687
323.15 K, x1 = 0.4089	0.893
323.15 K, x1 = 0.5253	1.154
323.15 K, x1 = 0.6914	1.527
323.15 K, x1 = 0.8336	1.735

CC(C)c1ccccc1 + CCCCO
viscosity [mPa·s], 101 kPa
Conditions	298.15 K	303.15 K	308.15 K	313.15 K	318.15 K	323.15 K
x1 = 0.0989	2.069	–	1.657	–	–	–
x1 = 0.1844	1.723	–	1.398	–	–	–
x1 = 0.2877	1.417	–	1.135	–	–	–
x1 = 0.3941	1.188	–	0.9456	–	–	–
x1 = 0.5189	1.001	–	0.8025	–	–	–
x1 = 0.6544	0.8693	–	0.7291	–	–	–
x1 = 0.796	0.7776	–	0.7157	–	–	–
x2 = 0.1001	–	0.6982	0.6545	0.6143	0.5795	0.5481
x2 = 0.1998	–	0.7295	0.6815	0.6366	0.5969	0.5613
x2 = 0.3007	–	0.7788	0.7225	0.6725	0.6285	0.5885
x2 = 0.3997	–	0.8423	0.7784	0.7209	0.6696	0.6249
x2 = 0.4999	–	0.9355	0.8588	0.7901	0.7288	0.6767
x2 = 0.6	–	1.068	0.9725	0.8867	0.8131	0.7485
x2 = 0.6992	–	1.252	1.129	1.022	0.9275	0.848
x2 = 0.7999	–	1.474	1.323	1.187	1.068	0.9682
x2 = 0.9006	–	1.837	1.629	1.452	1.298	1.168

CN1CCCN(C)C1=O + CCCCCCn1cc[n+](C)c1.[Cl-]
100 kPa
Conditions	viscosity [mPa·s]
298.15 K, x2 = 0.3083	45.85
308.15 K, x2 = 0.3981	63.85
